Assay results as given in patent publication US6806230B1, “Pyrimidine derivatives and herbicides containing them” (Kumiai Chemical Industry Co., Ltd., priority 1999, dated 2004).

Assays:
Type in all cases: in vivo
barnyard grass (Eo) [1] = test: Test Example 1: herbicidal effects by flooded paddy field treatment; parameters: herbicidal effects, Eo (barnyard grass):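 0-5 growth inhibition grade; 5 = over 90%; 4 = 70-90%; 3 = 50-70%; 2 = 30-50%; 1 = 10-30%; 0 = under 10%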; conditions: for Herbicidal effect index, Eo: dose 100 gai/10a, examined on 21st day after treatment, index 0-5 per Table 44;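 for Herbicidal effect index, Eo: 0-5 growth inhibition grade; 5 = over 90%; 4 = 70-90%; 3 = 50-70%; 2 = 30-50%; 1 = 10-30%; 0 = under 10%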
In short: (§1)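 Seeds sown in puddled paddy soil and flooded to 3 cm. Next day, a water-diluted wettable powder was dripped onto the water surface at 100 g active ingredient per 10 ares. Plants were grown in a greenhouse, and herbicidal effect was scored against a rating standard 21 days after treatment.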

monochoria (Mo) [2] = test: as above; parameters: herbicidal effects, Mo (monochoria):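 0-5 growth inhibition grade; 5 = over 90%; 4 = 70-90%; 3 = 50-70%; 2 = 30-50%; 1 = 10-30%; 0 = under 10%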; conditions: for Herbicidal effect index, Mo: dose 100 gai/10a, examined on 21st day after treatment, index 0-5 per Table 44
In short: as §1

barnyard grass (Ec) = test: Test Example 2: herbicidal effects by upland soil treatment; parameters: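 0-5 growth inhibition grade; 5 = over 90%; 4 = 70-90%; 3 = 50-70%; 2 = 30-50%; 1 = 10-30%; 0 = under 10%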; conditions: dose 100 g active ingredient per 10 ares, examined on the 21st day after treatment, standards of Table 44
In short: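 Pre-emergence test: barnyard grass and green foxtail sown in upland soil, then soil surface sprayed with wettable-powder formulation at 100 g active ingredient per 10 ares (100 l per 10 ares). Grown in greenhouse; herbicidal effect scored on a rating scale 21 days after treatment.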

green foxtail (Se) = test: as above; conditions: dose 100 g active ingredient per 10 ares, examined on the 21st day after treatment, standards of Table 44;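 note: 0-5 growth inhibition grade; 5 = over 90%; 4 = 70-90%; 3 = 50-70%; 2 = 30-50%; 1 = 10-30%; 0 = under 10%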
Procedure: In a 80 cm^2 plastic pot, upland soil was filled, and seeds of barnyard grass (Ec) and green foxtail (Se) were sown and covered with soil. A wettable powder prepared in accordance with Formulation Example 1 was diluted with water and uniformly applied to the soil surface by means of a small size spray at a rate of 100 l per 10 ares, so that the dose of the active ingredient would be 100 g per 10 ares. Thereafter, cultivation was carried out in a green house, and on the 21st day after the treatment, the herbicidal effects were examined in accordance with the standards as identified in Table 44.

barnyard grass (Eo) [3] = test: Test Example 4: selectivity for a crop plant by flooded paddy field treatment; parameters: scale not given here; conditions: for Eo (herbicidal effects, index): dose 25 g active ingredient per 10 ares, examined on the 21st day after treatment
In short: (§2)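 Paddled paddy soil in pots sown with barnyard grass and monochoria, with second-leaf-stage rice transplanted, under 3 cm of water. Next day a diluted wettable powder was dripped onto the water at 25 g active ingredient per 10 ares; effects scored on a rating scale 21 days later in a greenhouse.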

monochoria (Mo) [4] = test: as above; parameters: scale not given here; conditions: for Mo (herbicidal effects, index): dose 25 g active ingredient per 10 ares, examined on the 21st day after treatment
In short: as §2

rice (Or) = test: as above; parameters: scale not given here; conditions: rice transplanted at second leaf stage; for Or (effect on crop plant rice, index): dose 25 g active ingredient per 10 ares, examined on the 21st day after treatment
In short: as §2

[5] = dose 100 g active ingredient per 10 ares, examined on the 21st day after treatment, standards of Table 44
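Throughout, for Herbicidal effect index, Mo: 0-5 growth inhibition grade; 5 = over 90%; 4 = 70-90%; 3 = 50-70%; 2 = 30-50%; 1 = 10-30%; 0 = under 10%.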

| SMILES | herbicidal effects, Eo (barnyard grass) (barnyard grass (Eo) [1]; [5]) | herbicidal effects, Mo (monochoria) (monochoria (Mo) [2]; [5]) | herbicidal effects, Ec (barnyard grass) (barnyard grass (Ec)) | herbicidal effects, Se (green foxtail) (green foxtail (Se)) | Eo (herbicidal effect index) (barnyard grass (Eo) [3]; barnyard grass, dose 25 gai/10a, 21st day after treatment, index per Table 44) | Mo (herbicidal effect index) (monochoria (Mo) [4]; monochoria, dose 25 gai/10a, 21st day after treatment, index per Table 44) | Or (herbicidal effect index on crop) (rice (Or); dose 25 gai/10a, 21st day after treatment, index per Table 44) | Herbicidal effect index, Eo (barnyard grass (Eo) [1]) | Herbicidal effect index, Mo (monochoria (Mo) [2]) | Eo (herbicidal effects, index) (barnyard grass (Eo) [3]) | Mo (herbicidal effects, index) (monochoria (Mo) [4]) | Or (effect on crop plant rice, index) (rice (Or)) |
| --- | --- | --- | --- | --- | --- | --- | --- | --- | --- | --- | --- | --- |
| Cc1ccc(CC(=O)N(C)C(c2ccc(C)cc2)c2cncnc2C(F)(F)F)cc1 (racemic) [1-228] | 5 | 5 | 5 | 5 | 5 | 5 | 0 |  |  |  |  |  |
| COc1ccc(CC(=O)N(C)C(c2cncnc2C(F)(F)Cl)C(C)C)cc1 (racemic) [Compound 1-16] |  |  | 4 | 5 |  |  |  | 5 | 5 | 5 | 5 | 1 |
| CC(C)C(c1cncnc1C(F)(F)Cl)N(C)C(=O)Sc1ccccc1 (racemic) [Compound 1-17] |  |  | 4 | 4 |  |  |  | 5 | 5 | 5 | 5 | 1 |
| CC(C)C(c1cncnc1C(F)(F)F)N(C)C(=O)Cc1ccccc1Cl (racemic) [Compound 1-20] |  |  | 5 | 5 |  |  |  | 5 | 5 | 5 | 5 | 1 |
| CN(C(=O)Cc1ccccc1)C(c1cncnc1C(F)(F)F)C1CC1 (racemic) [Compound 1-34] |  |  | 5 | 5 |  |  |  | 5 | 5 | 5 | 5 | 1 |
| CN(C(=O)Cc1ccc(F)cc1)C(c1ccccc1)c1cncnc1C(F)(F)F (racemic) [Compound 1-36] |  |  | 5 | 5 |  |  |  | 5 | 5 | 5 | 5 | 1 |
| CC(C)C(c1cncnc1C(F)(F)Cl)N(C)C(=O)Nc1ccccc1 (racemic) [Compound 1-38] |  |  | 5 | 4 |  |  |  | 5 | 5 | 5 | 5 | 0 |
| CC(C)C(c1cncnc1C(F)(F)F)N(C)C(=O)Cc1cc(F)ccc1F (racemic) [Compound 1-40] |  |  | 5 | 4 |  |  |  | 5 | 5 | 5 | 5 | 0 |
| CC(C)C(c1cncnc1C(F)(F)F)N(C)C(=O)Cc1ccc([N+](=O)[O-])cc1 (racemic) [Compound 1-52] |  |  | 5 | 5 |  |  |  | 5 | 5 | 5 | 5 | 1 |
| CCCN(C(=O)Cc1ccc(C)cc1)C(c1cncnc1C(F)(F)F)C(C)C (racemic) [Compound 1-62] |  |  | 4 | 4 |  |  |  | 5 | 5 | 5 | 5 | 1 |
| CCCN(C(=O)Cc1ccccc1)C(c1cncnc1C(F)(F)F)C(C)C (racemic) [Compound 1-63] |  |  | 5 | 5 |  |  |  | 5 | 5 | 5 | 5 | 1 |
| Cc1ccc(NC(=O)N(C)C(c2cncnc2C(F)(F)Cl)C(C)C)cc1 (stereo not drawn) [Compound 1-37, N-methyl-N-[2-methyl-1-(4-chlorodifluoromethylpyrimidin-5-yl)propyl]-N′-(4-methylphenyl)urea] |  |  | 5 | 5 |  |  |  | 5 | 5 |  |  |  |
